In patent US10080812B2, “Radioactive iodine labeled pyrido[1,2-a]benzoimidazole derivative compound” (priority 2015, dated 2018):
Where “and” joins values, the source holds several entries; their conditions need not be identical. Equal values may be shown once.

Assays:
tau = test: In vitro autoradiography using autopsied brain tissue sections of an Alzheimer's disease patient (temporal lobe); format: binding, human; details: for radioactivity accumulation in the brain gray matter of the temporal lobe / binding affinity for tau: AD brain section, 370 kBq/mL, 2 h room temperature; for nonspecific binding to the brain white matter: AD brain sections; for autoradiography images compared with [125I]BIP-1 and [125I]BIP-2: temporal and frontal lobe sections
Protocol: (§1) Autopsied brain tissue sections of an Alzheimer's disease (AD) patient (sections from a frontal lobe site and a temporal lobe site, 6 μm) were used, which were provided from Graduate School of Medicine, Kyoto University. Deparaffinization treatment was performed by washing with xylene (15 min×2), ethanol (1 min×2), a 90 vol % aqueous ethanol solution (1 min×1), an 80 vol % aqueous ethanol solution (1 min×1), a 70 vol % aqueous ethanol solution (1 min×1), and purified water (2.5 min×2). A 10 vol % or 50 vol % aqueous ethanol solution of each of [^125I]BIP-1 to -4 (370 kBq/mL) obtained by the method shown in Example 9 was added thereto, and the tissue sections were incubated at room temperature for 2 hours. The tissue sections were washed with a 50 vol % aqueous ethanol solution (2 hr×1), then exposed to an imaging plate (BAS-SR2025 manufactured by Fujifilm Corp.) for 12 hours, and analyzed using a bioimaging analyzer (bioimaging analyzer BAS-5000 manufactured by Fujifilm Corp.). Multi Gauge manufactured by Fujifilm Corp. was used in quantitative analysis.
Senile plaque (SP) and neurofibrillary tangle (NFT) were stained using sections near the brain sections used in autoradiography. An anti-Aβ1-42 monoclonal antibody (BC05, manufactured by Wako Pure Chemical Industries, Ltd.) was used as a primary antibody in the immunostaining of SP, and an anti-phosphorylated tau monoclonal antibody (AT8, manufactured by Thermo Fisher Scientific Inc.) was used as an antibody in the immunostaining of NFT. Deparaffinization treatment was performed by washing with xylene (15 min×2), ethanol (1 min×2), a 90 vol % aqueous ethanol solution (1 min×1), an 80 vol % aqueous ethanol solution (1 min×1), a 70 vol % aqueous ethanol solution (1 min×1), and purified water (2.5 min×2). The antigens were retrieved by autoclaving (15 min) in a 0.01 mol/L citrate buffer solution (pH 6.0) and formic acid treatment (5 min). The tissue sections were washed with running water (5 min) and then washed with PBS-Tween 20 (2 min×1). The tissue sections were reacted with primary antibody solutions at room temperature for 1 hour and then washed with PBS-Tween 20 (5 min×3). The tissue sections were reacted with Histofine Simple Stain MAX-PO (MULTI) (manufactured by Nichirei Biosciences Inc.) at room temperature for 30 minutes and then washed with PBS-Tween 20 (3 min×3) and TBS (5 min×1). Finally, the tissue sections were reacted with a DAB solution at room temperature for 1 minute. The tissue sections were washed with distilled water (1 min×1) to terminate the reaction. The brain tissue sections were mounted on slides and then observed under a microscope (BZ-9000 manufactured by Keyence Corporation).

amyloid β protein (Aβ) = target: T1, amyloid β protein (Aβ) (Homo sapiens, UniProt P05067); test: In vitro autoradiography using autopsied brain tissue sections of an Alzheimer's disease patient (frontal lobe); format: binding; details: for radioactivity accumulation in the frontal lobe section / binding affinity for the amyloid β protein (Aβ): AD brain section, 370 kBq/mL, 2 h room temperature
T1 construct: from tissue; host or cells: autopsied AD patient brain, frontal lobe, 6 µm paraffin sections (Graduate School of Medicine, Kyoto University)
T1 sequence (P05067 672-713 limits assumed): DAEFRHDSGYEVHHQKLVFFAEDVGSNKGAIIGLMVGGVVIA
Protocol: as §1
Senile plaque (SP) and neurofibrillary tangle (NFT) were stained using sections near the brain sections used in autoradiography. An anti-Aβ1-42 monoclonal antibody (BC05, manufactured by Wako Pure Chemical Industries, Ltd.) was used as a primary antibody in the immunostaining of SP, and an anti-phosphorylated tau monoclonal antibody (AT8, manufactured by Thermo Fisher Scientific Inc.) was used as an antibody in the immunostaining of NFT. Deparaffinization treatment was performed by washing with xylene (15 min×2), ethanol (1 min×2), a 90 vol % aqueous ethanol solution (1 min×1), an 80 vol % aqueous ethanol solution (1 min×1), a 70 vol % aqueous ethanol solution (1 min×1), and purified water (2.5 min×2). The antigens were retrieved by autoclaving (15 min) in a 0.01 mol/L citrate buffer solution (pH 6.0) and formic acid treatment (5 min). The tissue sections were washed with running water (5 min) and then washed with PBS-Tween 20 (2 min×1). […]

[1] = Comparison of intracerebral kinetics in mice; format: in vivo, ddY male mice; details: for radioactivity in the brain: i.v. tail vein; for Brain2 min/60 min: ratio of radioactivity in the brain between 2 and 60 min after administration
Protocol: (§2) Each of [^125I]BIP-1 to -4 obtained by the method shown in Example 9 was diluted with saline containing 10 vol % ethanol and 0.1 vol % Tween 80. Each of [^125I]BIP-1 to -4 was administered to a group of 5-week-old ddY male mice (26 to 28 g; each group involved 5 mice) from the tail veins thereof at 25.0 to 37.5 kBq (100 μL) per mouse. After 2, 10, 30, or 60 minutes, the mice were slaughtered. After blood collection, the brains were taken out, and their weights and radioactivity were measured. As for [^125I]BIP-3, the principal organs were also excised, and their weights and radioactivity were measured.

[2] = Log P value measurement (1-octanol/phosphate buffer); format: physicochemical; details: 1-octanol / 0.1 mol/L phosphate buffer solution pH 7.4
Protocol: Each of [^125I]BIP-1 to -4 (125 kBq) obtained by the method shown in Example 9 was added to a centrifuge tube containing 1-octanol (3.00 mL) and a 0.1 mol/L phosphate buffer solution (pH 7.4, 3.00 mL), vortexed for 2 minutes, and then centrifuged at 4,000×g for 10 minutes. 500 μL of a solution was collected from each layer, and the radioactivity thereof was then measured. A partition coefficient was determined from the 1-octanol/phosphate buffer solution ratio of radioactivity.

[3] = In vivo radioactivity distribution experiment; parameters: species or system ddY male mice; details: mouse; for radioactivity in Blood / radioactivity in Brain / radioactivity in Heart / radioactivity in Intestine / radioactivity in Kidneys / radioactivity in Liver / radioactivity in Lungs / radioactivity in Pancreas / radioactivity in Spleen / radioactivity in Stomach / radioactivity in Thyroid gland: i.v.
Protocol: as §2

[4] = Stability evaluation in plasma; format: in vitro ADME, ddY mouse; details: 37° C., 1 hour
Protocol: Blood was collected from the heart of a ddY mouse (5 weeks old, body weight: 25 to 28 g) under anesthesia with isoflurane. The collected blood was fractionated by centrifugation at 4000×g for 10 minutes to recover a supernatant. [^125I]BIP-3 obtained by the method shown in Example 9 (188 kBq, 10.0 μL, ethanol solution) and the mouse plasma sample (200 μL) were mixed. The mixture was incubated at 37° C. for 1 hour, and acetonitrile (400 μL) was added thereto, followed by fractionation by centrifugation at 4000×g for 10 minutes. The supernatant was recovered, treated with Cosmonice Filter (S) (0.45 μm, 4 mm) (Nacalai Tesque, Inc.), and then analyzed by reverse phase HPLC. Analytical conditions for HPLC were the same as the conditions used in Example 9.

[5] = mouse, 2 min after administration
[6] = mouse, 10 min after administration
[7] = mouse, 30 min after administration
[8] = mouse, 60 min after administration

## [125I]c1ccc2c(c1)nc1cc(-c3ccccc3)ccn12 [[^125I]BIP-1, 7-[^125I]iodo-3-phenylbenzo[4,5]imidazo[1,2-a]pyridine]
tau; temporal lobe
  radioactivity accumulation in the brain gray matter of the temporal lobe / binding affinity for tau: have binding affinity for tau
tau
  nonspecific binding to the brain white matter: low nonspecific binding
Amyloid β protein (Aβ)
  radioactivity accumulation in the frontal lobe section / binding affinity for the amyloid β protein (Aβ): low
[1]; [5]
  radioactivity in the brain: 3.51 % ID/g
[1]; [6]
  radioactivity in the brain: 2.14 % ID/g
[1]; [7]
  radioactivity in the brain: 0.65 % ID/g
[1]; [8]
  radioactivity in the brain: 0.23 % ID/g
[1]
  Brain2 min/60 min: 15.3
[2]
  Log P: 2.64

## [125I]c1ccc(-c2ccn3c(c2)nc2ccccc23)cc1 [[^125I]BIP-2, 3-(4-[^125I]iodophenyl)benzo[4,5]imidazo[1,2-a]pyridine]
tau; temporal lobe
  radioactivity accumulation in the brain gray matter of the temporal lobe / binding affinity for tau: have binding affinity for tau
tau
  nonspecific binding to the brain white matter: low nonspecific binding
Amyloid β protein (Aβ)
  radioactivity accumulation in the frontal lobe section / binding affinity for the amyloid β protein (Aβ): low
[1]; [5]
  radioactivity in the brain: 2.73 % ID/g
[1]; [6]
  radioactivity in the brain: 1.73 % ID/g
[1]; [7]
  radioactivity in the brain: 0.57 % ID/g
[1]; [8]
  radioactivity in the brain: 0.26 % ID/g
[1]
  Brain2 min/60 min: 10.4
[2]
  Log P: 2.61

## [125I]c1ccc2c(c1)nc1ccccn12 [[^125I]BIP-3, 7-[^125I]iodobenzo[4,5]imidazo[1,2-a]pyridine]
tau
  autoradiography images compared with [125I]BIP-1 and [125I]BIP-2: images equivalent to [^125I]BIP-1 and [^125I]BIP-2
tau; temporal lobe sites e-j, compared with frontal lobe
  radioactivity accumulation to the temporal lobe (quantitative analysis): higher radioactivity accumulation
tau; temporal lobe, AT8 and BC05 immunostaining
  radioactivity accumulation on temporal lobe section compared with immunostaining of tau and Aβ: consistent with the accumulation of tau
Amyloid β protein (Aβ); frontal lobe sites a-d, only Aβ accumulates
  radioactivity accumulation to the frontal lobe (quantitative analysis): low radioactivity accumulation
[1]; [5]
  radioactivity in the brain: 4.74 % ID/g
[1]; [6]
  radioactivity in the brain: 0.65 % ID/g
[1]; [7]
  radioactivity in the brain: 0.12 % ID/g
[1]; [8]
  radioactivity in the brain: 0.06 % ID/g
[1]; mouse, i.v., 2-60 min
  intracerebral kinetics: favorable intracerebral kinetics
[1]
  Brain2 min/60 min: 79.0
[3]; 2 min
  radioactivity in Blood: 5.20 (0.44) % ID/g
  radioactivity in Brain: 4.74 (0.57) % ID/g
  radioactivity in Heart: 7.66 (1.21) % ID/g
  radioactivity in Intestine: 5.41 (0.62) % ID/g
  radioactivity in Kidneys: 23.7 % ID/g and 23.7 (2.44) % ID/g
  radioactivity in Liver: 19.9 % ID/g and 19.9 (1.39) % ID/g
  radioactivity in Lungs: 29.7 (4.63) % ID/g
  radioactivity in Pancreas: 5.36 (0.91) % ID/g
  radioactivity in Spleen: 4.76 (0.39) % ID/g
  radioactivity in Stomach: 2.70 (0.56) % ID
  radioactivity in Thyroid gland: 0.09 (0.03) % ID
[3]; 10 min
  radioactivity in Blood: 2.94 (0.41) % ID/g
  radioactivity in Brain: 0.65 (0.07) % ID/g
  radioactivity in Heart: 1.66 (0.75) % ID/g
  radioactivity in Intestine: 11.6 (2.43) % ID/g
  radioactivity in Kidneys: 12.2 (1.55) % ID/g
  radioactivity in Liver: 14.4 (2.14) % ID/g
  radioactivity in Lungs: 6.32 (1.16) % ID/g
  radioactivity in Pancreas: 1.49 (0.47) % ID/g
  radioactivity in Spleen: 1.34 (0.28) % ID/g
  radioactivity in Stomach: 6.73 (1.64) % ID
  radioactivity in Thyroid gland: 0.06 (0.02) % ID
[3]; 30 min
  radioactivity in Blood: 1.30 (0.16) % ID/g
  radioactivity in Brain: 0.12 (0.01) % ID/g
  radioactivity in Heart: 0.97 (0.26) % ID/g
  radioactivity in Intestine: 21.4 (5.69) % ID/g
  radioactivity in Kidneys: 10.3 (5.11) % ID/g
  radioactivity in Liver: 6.29 (0.45) % ID/g
  radioactivity in Lungs: 1.91 (0.29) % ID/g
  radioactivity in Pancreas: 0.78 (0.47) % ID/g
  radioactivity in Spleen: 0.58 (0.16) % ID/g
  radioactivity in Stomach: 5.34 (1.26) % ID
  radioactivity in Thyroid gland: 0.13 (0.03) % ID
[3]; 60 min
  radioactivity in Blood: 1.11 (0.53) % ID/g
  radioactivity in Brain: 0.06 (0.01) % ID/g
  radioactivity in Heart: 0.83 (0.24) % ID/g
  radioactivity in Intestine: 29.4 % ID/g and 29.4 (7.49) % ID/g
  radioactivity in Kidneys: 8.99 (4.47) % ID/g
  radioactivity in Liver: 5.25 (0.95) % ID/g
  radioactivity in Lungs: 1.45 (0.23) % ID/g
  radioactivity in Pancreas: 0.75 (0.30) % ID/g
  radioactivity in Spleen: 0.71 (0.11) % ID/g
  radioactivity in Stomach: 4.42 (2.43) % ID
  radioactivity in Thyroid gland: 0.22 % ID and 0.22 (0.03) % ID
[3]; up to 60 min after administration
  deiodination in living body (from thyroid gland uptake): marked deiodination does not occur
[4]
  stability in mouse plasma (reverse phase HPLC): only the peak of the parent compound was detected
[2]
  Log P: 3.22

## [125I]c1ccn2c(c1)nc1ccccc12 [[^125I]BIP-4, 3-[^125I]iodobenzo[4,5]imidazo[1,2-a]pyridine]
tau
  autoradiography images compared with [125I]BIP-1 and [125I]BIP-2: images equivalent to [^125I]BIP-1 and [^125I]BIP-2
[1]; [5]
  radioactivity in the brain: 2.37 % ID/g
[1]; [6]
  radioactivity in the brain: 0.36 % ID/g
[1]; [7]
  radioactivity in the brain: 0.09 % ID/g
[1]; [8]
  radioactivity in the brain: 0.06 % ID/g
[1]
  Brain2 min/60 min: 39.5
[2]
  Log P: 2.35
